Measurements as given in PubChem BioAssay (NCI).
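Briefly, cells in 96-well plates were exposed to five compound concentrations for 48 h, and endpoints were estimated by linear interpolation. Definition used: TGI = concentration required for complete inhibition of growth.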

Columns and labels:
Assay in all cases: DTP human tumour cell line panel, 48 h
[1] = test system: 786-0 renal
[2] = test system: A549 NSCLC
[3] = test system: ACHN renal
[4] = test system: CAKI-1 renal
[5] = test system: CCRF-CEM leukemia
[6] = test system: COLO 205 colon
[7] = test system: DLD-1 colon
[8] = test system: DMS 114 small cell lung
[9] = test system: DMS 273 small cell lung
[10] = test system: EKVX NSCLC
[11] = test system: HCC-2998 colon
[12] = test system: HCT-116 colon
[13] = test system: HCT-15 colon
[14] = test system: HL-60(TB) leukemia
[15] = test system: HOP-18 NSCLC
[16] = test system: HOP-62 NSCLC
[17] = test system: HT29 colon
[18] = test system: K-562 leukemia
[19] = test system: KM12 colon
[20] = test system: LOX IMVI melanoma
[21] = test system: M14 melanoma
[22] = test system: M19-MEL melanoma
[23] = test system: MALME-3M melanoma
[24] = test system: MOLT-4 leukemia
[25] = test system: NCI-H226 lung
[26] = test system: NCI-H23 lung
[27] = test system: NCI-H460 lung
[28] = test system: NCI-H522 lung
[29] = test system: OVCAR-3 ovarian
[30] = test system: OVCAR-4 ovarian
[31] = test system: OVCAR-5 ovarian
[32] = test system: OVCAR-8 ovarian
[33] = test system: RPMI-8226 leukemia
[34] = test system: SF-268 CNS
[35] = test system: SF-295 CNS
[36] = test system: SF-539 CNS
[37] = test system: SK-MEL-2 melanoma
[38] = test system: SK-MEL-28 melanoma
[39] = test system: SK-MEL-5 melanoma
[40] = test system: SN12C renal
[41] = test system: SNB-19 CNS
[42] = test system: SNB-75 CNS
[43] = test system: SNB-78 CNS
[44] = test system: SR leukemia
[45] = test system: SW-620 colon
[46] = test system: TK-10 renal
[47] = test system: U251 CNS
[48] = test system: UACC-257 melanoma
[49] = test system: UO-31 renal
[50] = test system: XF 498 CNS
[51] = test system: A498 renal
[52] = test system: HOP-92 NSCLC
[53] = test system: IGROV1 ovarian
[54] = test system: LXFL 529 NSCLC
[55] = test system: RXF 393 renal
[56] = test system: SK-OV-3 ovarian
[57] = test system: UACC-62 melanoma
[58] = test system: KM20L2 colon

Structure (SMILES): CC1=NN(C(=O)Cc2ccccc2)C(=O)/C1=C\c1cccc(O)c1
- TGI [1]: > 100 µM
- TGI [2]: > 100 µM
- TGI [3]: > 100 µM
- TGI [4]: > 100 µM
- TGI [5]: > 100 µM
- TGI [6]: > 100 µM
- TGI [7]: > 100 µM
- TGI [8]: > 100 µM
- TGI [9]: > 100 µM
- TGI [10]: > 100 µM
- TGI [11]: > 100 µM
- TGI [12]: > 100 µM
- TGI [13]: > 100 µM
- TGI [14]: > 100 µM
- TGI [15]: > 100 µM
- TGI [16]: > 100 µM
- TGI [17]: > 100 µM
- TGI [18]: > 100 µM
- TGI [19]: > 100 µM
- TGI [20]: > 100 µM
- TGI [21]: > 100 µM
- TGI [22]: > 100 µM
- TGI [23]: > 100 µM
- TGI [24]: > 100 µM
- TGI [25]: > 100 µM
- TGI [26]: > 100 µM
- TGI [27]: > 100 µM
- TGI [28]: > 100 µM
- TGI [29]: > 100 µM
- TGI [30]: > 100 µM
- TGI [31]: > 100 µM
- TGI [32]: > 100 µM
- TGI [33]: > 100 µM
- TGI [34]: > 100 µM
- TGI [35]: > 100 µM
- TGI [36]: > 100 µM
- TGI [37]: > 100 µM
- TGI [38]: > 100 µM
- TGI [39]: > 100 µM
- TGI [40]: > 100 µM
- TGI [41]: > 100 µM
- TGI [42]: > 100 µM
- TGI [43]: > 100 µM
- TGI [44]: > 100 µM
- TGI [45]: > 100 µM
- TGI [46]: > 100 µM
- TGI [47]: > 100 µM
- TGI [48]: > 100 µM
- TGI [49]: > 100 µM
- TGI [50]: > 100 µM

Structure (SMILES): C=C1C(=O)C23C(CC(OC(C)=O)C1[C@@H]2OC(C)=O)C1(C)C(OC(C)=O)CCC(C)(C)C1C[C@@H]3OC(C)=O (stereo partly specified)
- TGI [1]: 2.73 µM
- TGI [51]: 3.4 µM
- TGI [2]: 3.05 µM
- TGI [3]: 2.92 µM
- TGI [4]: 1.94 µM
- TGI [8]: 2.4 µM
- TGI [9]: 3.07 µM
- TGI [10]: 5.38 µM
- TGI [11]: 3.24 µM
- TGI [12]: 2.97 µM
- TGI [13]: 2.52 µM
- TGI [14]: 2.51 µM
- TGI [16]: 7.98 µM
- TGI [52]: 1.35 µM
- TGI [17]: 2.22 µM
- TGI [53]: 2.87 µM
- TGI [18]: 3.6 µM
- TGI [19]: 3.49 µM
- TGI [20]: 2.63 µM
- TGI [54]: 2.63 µM
- TGI [21]: 2.92 µM
- TGI [22]: 3.16 µM
- TGI [23]: 3.01 µM
- TGI [25]: 3.13 µM
- TGI [27]: 3.37 µM
- TGI [28]: 1.66 µM
- TGI [29]: 3.03 µM
- TGI [30]: 3.41 µM
- TGI [31]: 3.27 µM
- TGI [32]: 1.59 µM
- TGI [33]: 4.68 µM
- TGI [55]: 0.831 µM
- TGI [34]: 2.98 µM
- TGI [35]: 2.86 µM
- TGI [36]: 3.16 µM
- TGI [37]: 3.37 µM
- TGI [38]: 3.3 µM
- TGI [39]: 3.33 µM
- TGI [56]: 3.59 µM
- TGI [40]: 2.8 µM
- TGI [41]: 3.31 µM
- TGI [42]: 2.89 µM
- TGI [43]: 3.14 µM
- TGI [45]: 2.75 µM
- TGI [47]: 2.95 µM
- TGI [48]: 3.14 µM
- TGI [57]: 3.72 µM
- TGI [49]: 3.19 µM

Structure (SMILES): Cc1ccc(NC(=O)CCC(=O)C(C#N)c2ccc(Cl)cc2)cc1C (stereo unspecified)
- TGI [1]: > 100 µM
- TGI [51]: > 100 µM
- TGI [2]: > 100 µM
- TGI [3]: > 100 µM
- TGI [4]: > 100 µM
- TGI [5]: > 100 µM
- TGI [7]: > 100 µM
- TGI [8]: > 100 µM
- TGI [9]: > 100 µM
- TGI [10]: > 100 µM
- TGI [11]: > 100 µM
- TGI [12]: > 100 µM
- TGI [13]: > 100 µM
- TGI [14]: > 100 µM
- TGI [15]: > 100 µM
- TGI [16]: > 100 µM
- TGI [52]: > 100 µM
- TGI [17]: > 100 µM
- TGI [53]: > 100 µM
- TGI [18]: > 100 µM
- TGI [19]: > 100 µM
- TGI [58]: > 100 µM
- TGI [20]: > 100 µM
- TGI [54]: > 100 µM
- TGI [21]: > 100 µM
- TGI [22]: > 100 µM
- TGI [23]: > 100 µM
- TGI [24]: > 100 µM
- TGI [25]: > 100 µM
- TGI [26]: > 100 µM
- TGI [27]: > 100 µM
- TGI [28]: > 100 µM
- TGI [29]: > 100 µM
- TGI [30]: > 100 µM
- TGI [31]: > 100 µM
- TGI [32]: > 100 µM
- TGI [33]: > 100 µM
- TGI [55]: > 100 µM
- TGI [34]: > 100 µM
- TGI [35]: > 100 µM
- TGI [36]: > 100 µM
- TGI [37]: > 100 µM
- TGI [38]: > 100 µM
- TGI [39]: > 100 µM
- TGI [40]: > 100 µM
- TGI [41]: > 100 µM
- TGI [42]: > 100 µM
- TGI [43]: > 100 µM
- TGI [45]: > 100 µM
- TGI [46]: > 100 µM
- TGI [47]: > 100 µM
- TGI [48]: > 100 µM
- TGI [57]: > 100 µM
- TGI [49]: > 100 µM
- TGI [50]: > 100 µM

Structure (SMILES): Cc1cc(C(=O)NCCN(C)C)c2nc3ccccc3nc2c1
- TGI [1]: > 61.9 µM
- TGI [51]: 16.4 µM
- TGI [2]: > 58.7 µM
- TGI [3]: > 51 µM
- TGI [4]: > 46.5 µM
- TGI [6]: > 37.1 µM
- TGI [7]: 48.9 µM
- TGI [8]: 14.4 µM
- TGI [9]: > 100 µM
- TGI [10]: 43.5 µM
- TGI [11]: 35.2 µM
- TGI [12]: 16.3 µM
- TGI [13]: 27.6 µM
- TGI [14]: > 100 µM
- TGI [15]: > 88.8 µM
- TGI [16]: 10.4 µM
- TGI [17]: 19.1 µM
- TGI [53]: > 29.5 µM
- TGI [18]: 9.8 µM
- TGI [19]: 23.8 µM
- TGI [58]: 15.1 µM
- TGI [20]: 9.17 µM
- TGI [54]: > 46.3 µM
- TGI [21]: > 33.5 µM
- TGI [22]: 13.6 µM
- TGI [23]: 13.8 µM
- TGI [24]: 5.97 µM
- TGI [25]: 14.3 µM
- TGI [26]: 23.6 µM
- TGI [28]: > 100 µM
- TGI [29]: 40.4 µM
- TGI [30]: 19.5 µM
- TGI [31]: 15.2 µM
- TGI [32]: > 76.6 µM
- TGI [33]: 41.2 µM
- TGI [55]: 19.7 µM
- TGI [35]: > 27.8 µM
- TGI [36]: 19.4 µM
- TGI [37]: 17.2 µM
- TGI [38]: 16.1 µM
- TGI [39]: > 41.6 µM
- TGI [56]: > 46 µM
- TGI [40]: 43.7 µM
- TGI [41]: 73.5 µM
- TGI [42]: 48.3 µM
- TGI [43]: 47.2 µM
- TGI [44]: > 100 µM
- TGI [45]: > 37.4 µM
- TGI [46]: > 59.1 µM
- TGI [47]: 33.3 µM
- TGI [48]: 17.2 µM
- TGI [57]: 18.7 µM
- TGI [49]: > 59.6 µM
